# Structures can show the parent of a compound that is named as a salt.
row,Structure (SMILES),melting point
1,O=C(O)C1=C[C@@]2(CC1)CCN(C(=O)c1ccc(NC(=O)c3ccccc3-c3ccccc3)cc1)c1ccccc1C2,263 to 265 °C
2,CN(C)CCNC(=O)C1=C[C@@]2(CC1)CCN(C(=O)c1ccc(NC(=O)c3ccccc3-c3ccccc3)cc1)c1ccccc1C2.O=C(O)c1ccccc1,180 to 185 °C (dec.)
3,CN(C)CCNC(=O)C1=C[C@@]2(CC1)CCN(C(=O)c1ccc(NC(=O)c3ccccc3F)cc1)c1ccccc1C2 (as salt: phosphate),148 to 158 °C (dec.)

# From patent US20090105220A1, “PROCESS FOR THE PREPARATION OF NONPEPTIDE SUBSTITUTED SPIROBENZOAZEPINE DERIVATIVES” (priority 2003, published 2009)
